Experimental data published in patent publication US7704995B2 (Exelixis, Inc., priority 2003, dated 2010).

Target: T1, Chk1 (Homo sapiens, UniProt O14757)
T1 construct: purchased Upstate Biotechnology
T1 sequence (O14757 1-476): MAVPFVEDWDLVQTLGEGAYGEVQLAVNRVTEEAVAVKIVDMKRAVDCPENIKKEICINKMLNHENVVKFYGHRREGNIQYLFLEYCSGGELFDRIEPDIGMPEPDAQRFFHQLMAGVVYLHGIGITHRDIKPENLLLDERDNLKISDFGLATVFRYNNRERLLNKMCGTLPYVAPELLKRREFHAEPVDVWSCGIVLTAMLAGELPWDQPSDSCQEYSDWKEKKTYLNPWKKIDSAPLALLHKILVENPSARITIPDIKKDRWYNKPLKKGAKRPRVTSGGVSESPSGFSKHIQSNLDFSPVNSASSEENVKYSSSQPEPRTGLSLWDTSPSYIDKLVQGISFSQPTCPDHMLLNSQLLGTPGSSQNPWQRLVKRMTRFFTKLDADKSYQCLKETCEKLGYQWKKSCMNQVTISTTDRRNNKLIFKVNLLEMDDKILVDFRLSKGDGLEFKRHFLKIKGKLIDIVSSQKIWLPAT
Test: Chk1 kinase assay: incorporation of γ-33P ATP into immobilized myelin basic protein
Format: biochemical
Details: Table 11; Chk1 only; read-out: Chk1 IC50
In short: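 Chk1 (10 nM) or Chk2 (20 nM) phosphorylated plate-immobilized myelin basic protein for 1 h at room temperature in Hepes pH 7.6 buffer with MgCl2, DTT, 1% DMSO, γ-33P ATP plus 10 μM (Chk1) or 30 μM (Chk2) unlabeled ATP. Bound radioactivity counted by scintillation; IC50 determined, Ki derivable from IC50.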

SMILES	IC50
CCN(Cc1ccccc1)Cc1cccc(-c2cnc(N)c(C(=O)NC)n2)c1 [Example 439, 3-amino-6-(3-{[ethyl(phenylmethyl)amino]methyl}phenyl)-N-methylpyrazine-2-carboxamide]	50 to 1000 nM
CNC(=O)c1nc(-c2cccc(CN[C@H]3C[C@H]3c3ccccc3)c2)cnc1N [Example 440, 3-amino-N-methyl-6-[3-({[(1S,2S)-2-phenylcyclopropyl]amino}methyl)phenyl]pyrazine-2-carboxamide]	50 to 1000 nM
CNC(=O)c1nc(-c2cccc(C(=O)NCc3ccccc3)c2)cnc1N [Example 441, 3-Amino-6-(3-benzylcarbamoyl-phenyl)-pyrazine-2-carboxylic acid methylamide]	50 to 1000 nM
CNC(=O)c1nc(-c2cccc(-c3nc(-c4ccccc4)c[nH]3)c2)cnc1N [Example 442, 3-amino-N-methyl-6-[3-(4-phenyl-1H-imidazol-2-yl)phenyl]pyrazine-2-carboxamide]	50 to 1000 nM
CCCc1ccc(CNCc2cccc(-c3cnc(N)c(C(=O)NC)n3)c2)cc1 [Example 443, 3-amino-N-methyl-6-[3-({[(4-propylphenyl)methyl]amino}methyl)phenyl]pyrazine-2-carboxamide]	50 to 1000 nM
CNC(=O)c1nc(-c2cccc(CNCc3cc(Br)ccc3F)c2)cnc1N [Example 444, 3-amino-6-[3-({[(5-bromo-2-fluorophenyl)methyl]amino}methyl)phenyl]-N-methylpyrazine-2-carboxamide]	50 to 1000 nM
CNC(=O)c1nc(-c2cccc(CN[C@@H]3CCc4ccccc4C3)c2)cnc1N [Example 445, 3-amino-N-methyl-6-(3-{[(2R)-1,2,3,4-tetrahydronaphthalen-2-ylamino]methyl}phenyl)pyrazine-2-carboxamide]	< 50 nM
CNC(=O)c1nc(-c2cccc(CNC(C)(C)c3ccccc3)c2)cnc1N [Example 446, 3-amino-N-methyl-6-(3-{[(1-methyl-1-phenylethyl)amino]methyl}phenyl)pyrazine-2-carboxamide]	50 to 1000 nM
CNC(=O)c1nc(-c2cccc(CNC3c4ccccc4-c4ccccc43)c2)cnc1N [Example 447, 3-amino-6-{3-[(9H-fluoren-9-ylamino)methyl]phenyl}-N-methylpyrazine-2-carboxamide]	1000 to 10000 nM
CNC(=O)c1nc(-c2cccc(CNc3cccc4ccccc34)c2)cnc1N [Example 448, 3-amino-N-methyl-6-{3-[(naphthalen-1-ylamino)methyl]phenyl}pyrazine-2-carboxamide]	50 to 1000 nM
CNC(=O)c1nc(-c2cccc(CNCc3ccc(-c4ccccc4)cc3F)c2)cnc1N [Example 449, 3-amino-6-[3-({[(3-fluorobiphenyl-4-yl)methyl]amino}methyl)phenyl]-N-methylpyrazine-2-carboxamide]	50 to 1000 nM
CNC(=O)c1nc(-c2cccc(CNCc3ccc(-c4cccs4)cc3F)c2)cnc1N [Example 450, 3-amino-6-{3-[({[2-fluoro-4-(2-thienyl)phenyl]methyl}amino)methyl]phenyl}-N-methylpyrazine-2-carboxamide]	< 50 nM
CNC(=O)c1nc(-c2cccc(CNCc3ccc(-c4ccco4)cc3F)c2)cnc1N [Example 451, 3-amino-6-[3-({[(2-fluoro-4-furan-2-ylphenyl)methyl]amino}methyl)phenyl]-N-methylpyrazine-2-carboxamide]	< 50 nM
CNC(=O)c1nc(-c2cccc(CNc3ccc4ccccc4c3)c2)cnc1N [Example 452, 3-amino-N-methyl-6-{3-[(naphthalen-2-ylamino)methyl]phenyl}pyrazine-2-carboxamide]	50 to 1000 nM
CNC(=O)c1nc(-c2cccc(CN[C@H]3c4ccccc4C[C@H]3O)c2)cnc1N [Example 453, 3-amino-6-[3-({[(1S,2R)-2-hydroxy-2,3-dihydro-1H-inden-1-yl]amino}methyl)phenyl]-N-methylpyrazine-2-carboxamide]	< 50 nM
CNC(=O)c1nc(-c2cccc(CN[C@H]3CCc4ccccc4C3)c2)cnc1N [Example 454, 3-amino-N-methyl-6-(3-{[(2S)-1,2,3,4-tetrahydronaphthalen-2-ylamino]methyl}phenyl)pyrazine-2-carboxamide]	< 50 nM
COC(=O)c1nc(-c2cccc(CNC3CCc4c(F)ccc(F)c43)c2)cnc1N (stereo not drawn) [Example 455, methyl 3-amino-6-(3-{[(4,7-difluoro-2,3-dihydro-1H-inden-1-yl)amino]methyl}phenyl)pyrazine-2-carboxylate]	50 to 1000 nM
CNC(=O)c1nc(-c2cccc(CNC3Cc4ccc(Br)cc4C3)c2)cnc1N (stereo not drawn) [Example 456, 3-amino-6-(3-{[(5-bromo-2,3-dihydro-1H-inden-2-yl)amino]methyl}phenyl)-N-methylpyrazine-2-carboxamide]	50 to 1000 nM
CNC(=O)c1nc(-c2cccc(CNCc3cc(-c4cccs4)ccc3F)c2)cnc1N [Example 457, 3-amino-6-{3-[({[2-fluoro-5-(2-thienyl)phenyl]methyl}amino)methyl]phenyl}-N-methylpyrazine-2-carboxamide]	50 to 1000 nM
C=Cc1ccc(CNCc2cccc(-c3cnc(N)c(C(=O)NC)n3)c2)c(F)c1 [Example 458, 3-amino-6-[3-({[(4-ethenyl-2-fluorophenyl)methyl]amino}methyl)phenyl]-N-methylpyrazine-2-carboxamide]	50 to 1000 nM
CNC(=O)c1nc(-c2cccc(CNC3CC(C)c4c(F)ccc(F)c43)c2)cnc1N (stereo not drawn) [Example 459, 3-amino-6-(3-{[(4,7-difluoro-3-methyl-2,3-dihydro-1H-inden-1-yl)amino]methyl}phenyl)-N-methylpyrazine-2-carboxamide]	50 to 1000 nM
CNC(=O)c1nc(-c2cccc(CN[C@H]3c4ccccc4C[C@H]3OC)c2)cnc1N [Example 460, 3-amino-N-methyl-6-[3-({[(1S,2R)-2-(methyloxy)-2,3-dihydro-1H-inden-1-yl]amino}methyl)phenyl]pyrazine-2-carboxamide]	50 to 1000 nM
CNC(=O)c1nc(-c2cccc(CNC3CCc4cc(Br)ccc43)c2)cnc1N (stereo not drawn) [Example 461, 3-amino-6-(3-{[(5-bromo-2,3-dihydro-1H-inden-1-yl)amino]methyl}phenyl)-N-methylpyrazine-2-carboxamide]	50 to 1000 nM
CNC(=O)c1nc(-c2cccc(CN[C@H]3CCc4cc(Br)ccc4C3)c2)cnc1N [Example 462, 3-amino-6-[3-({[(2S)-6-bromo-1,2,3,4-tetrahydronaphthalen-2-yl]amino}methyl)phenyl]-N-methylpyrazine-2-carboxamide]	< 50 nM
CNC(=O)c1nc(-c2cccc(CN[C@@H]3CCc4cc(Br)ccc4C3)c2)cnc1N [Example 463, 3-amino-6-[3-({[(2R)-6-bromo-1,2,3,4-tetrahydronaphthalen-2-yl]amino}methyl)phenyl]-N-methylpyrazine-2-carboxamide]	50 to 1000 nM
CNC(=O)c1nc(-c2cccc(CNC3CCc4cc(F)ccc43)c2)cnc1N (stereo not drawn) [Example 464, 3-amino-6-(3-{[(5-fluoro-2,3-dihydro-1H-inden-1-yl)amino]methyl}phenyl)-N-methylpyrazine-2-carboxamide]	50 to 1000 nM
CNC(=O)c1nc(-c2cccc(CN[C@H]3Cc4ccc(Br)cc4C3)c2)cnc1N [Example 465, 3-amino-6-[3-({[(2S)-5-bromo-2,3-dihydro-1H-inden-2-yl]amino}methyl)phenyl]-N-methylpyrazine-2-carboxamide]	< 50 nM
